# Laboratory results from publication PMC10955247, “In vivo screening for toxicity-modulating drug interactions identifies antagonism that protects against ototoxicity in zebrafish” (Frontiers in Pharmacology, 2024).
# Counter-ions that a name gives are not always drawn.
# Test system: zebrafish lateral line hair cells
# Experiment: Lateral line hair cell intracellular calcium imaging and cell death
# Assay type: in vivo
# Source text: For calcium testing, zebrafish expressing HC-specific GCaMP targeted to the inner mitochondrial matrix were crossed with fish expressing a HC specific calcium indicator to create double-transgenic embryos (Tg (myo6b:mitoGCaMP3;myo6b:cytoRGECO), Table 1) with both green fluorescent mitochondrial calcium and red fluorescent cytosolic calcium indicators, then raised as described previously ([McQuate et al., 2023]). Zebrafish embryos were collected from 2-h spawning periods and raised in Petri dishes in embryo medium (EM: 14.97 mM NaCl, 500 μM KCl, 42 µM Na2HPO4, 150 µM KH2PO4, 1 mM CaCl2 dehydrate, 1 mM MgSO4, 0.714 mM NaHCO3, pH 7.2) at a density of 60 larvae per […] dish, in a dark 28.5°C incubator until 5 dpf. Larvae were screened for indicator expression at 4 dpf.
# Calcium imaging was performed using an inverted Marianas spinning disk confocal system (Intelligent Imaging Innovations, 3i) with an Evolve 10 MHz EMCCD camera (Photometrics) and a Zeiss C-Apochromat 63x/1.2 numerical aperture water objective. Larvae were 5-6 dpf at the time of imaging. Larvae were first anesthetized in embryo media containing 800 µM tricaine, then stabilized on their sides under a harp, so that posterior neuromasts were exposed to the surrounding media. Imaging was performed at ambient temperature, approximately 25°C. GCaMP fluorescence was acquired with a 488 nm laser and 535/30 emission filter, with an exposure time of 100 ms, and RGECO fluorescence was acquired with a 561 nm laser and 617/73 emission filter and exposure time of 200 ms. Images were taken every 2 minutes as z-stacks through neuromasts in 2 µm steps. Neomycin and azithromycin were dissolved as a 4X stock in EM (described in Section 2.1: Zebrafish Husbandry), then added to the bath to achieve final working concentration after a 10-min baseline. Imaging of neuromasts continued for 50 min. Images were analyzed in ImageJ. Mean fluorescence intensity was measured for ROIs of individual randomly selected HCs (2–3 HCs per NM, see example ROI in Figure 4). For each HC, values were normalized to the average of baseline using Microsoft Excel.
compound,measurement,setting,value
"NC[C@@H]1O[C@H](O[C@H]2[C@@H](O)[C@H](O[C@@H]3[C@@H](O)[C@H](N)C[C@H](N)[C@H]3O[C@H]3O[C@H](CN)[C@@H](O)[C@H](O)[C@H]3N)O[C@@H]2CO)[C@H](N)[C@@H](O)[C@@H]1O [Neomycin, Neomycin sulfate hydrate]",HC mitochondrial and cytoplasmic calcium response,"NEO 50 µM, AZM 190 µM, mitoGCaMP3, cytoRGECO larvae",induced an increase in mitochondrial
same,"HCs that went on to die, of those analyzed",NEO alone 50 µM,66%
same,cells that went on to die,"drug alone, calcium imaging",14/21
